The values below come from article PMC8577999 (Slas Discovery, 2021).

In data set [1] the test system is MLV reporter luciferase virus pseudotyped with the SARS-CoV-2 Spike protein (SARS2-S).
For data set [2], the system named is SARS-CoV-2 (USA-WA1/2020 isolate). The class given is cell-based.
For data set [3], the system named is SARS-CoV-2. The class given is cell-based.
The test system of data set [4] is SARS2-S. As to the kind of experiment: microbe, parasite or virus in culture. The class given is cell-based, SARS-CoV-2. The settings on record: Severe acute respiratory syndrome coronavirus 2, read-out: SARS2-S IC50.
The subject of data set [5] is VSV-G. As to the kind of experiment: microbe, parasite or virus in culture. The class given is cell-based. To be noted: Vesicular stomatitis virus, read-out: VSV-G IC50.
For data set [6], the system named is SARS1-S. As to the kind of experiment: microbe, parasite or virus in culture. The class given is cell-based, SARS-CoV-1.
For data set [7], the system named is SARS2-S WT. As to the kind of experiment: microbe, parasite or virus in culture. The class given is cell-based, SARS-CoV-2. To be noted: Severe acute respiratory syndrome coronavirus 2, read-out: WT IC50.
The subject of data set [8] is main viral protease (MPRO). The settings on record: read-out: MPRO IC50; cited from earlier work.

Where “and” joins values, the source holds several entries; their conditions need not be identical. Equal values may be shown once. Where a name gives a salt, the structure may show the parent alone. Square brackets hold non-standard residues; d marks the D form. Peptide text beside a SMILES is read from it. Nle = CCCC[C@H](N)C(=O)O

As for `CCCC[C@@H](C=O)NC(=O)[C@H](CC(C)C)NC(=O)[C@H](CC(C)C)NC(C)=O` [SR-372, calpain inhibitor I] (Ac-Leu-Leu-[Nle]-aldehyde), in data set [1], the “higher potency as compared to the best ReFRAME hit, SR-806 (VBY-825)” value came to 3.5 fold; the “higher specificity as compared to the best ReFRAME hit, SR-806 (VBY-825)” value was greater than 3 fold; the “therapeutic index (TI=CC50/IC50)” value is on record as “greater than 100”.
On to `CCCC[C@@H](C=O)NC(=O)[C@H](CC(C)C)NC(=O)OCc1ccccc1` [SR-914, calpeptin], for which the EC50 (usually the concentration needed to bring the measured effect to its halfway point) in data set [2] (read-out: EC50, SARS-CoV-2-induced CPE assay) was 174 nM and 163 nM. Besides, the “activity in plaque assays of wild type SARS-CoV-2 infection” value in data set [3] was “further confirmed”. The IC50 (as a rule, the midpoint of a concentration-inhibition curve) in data set [4] is 10.9 ± 0.78 nM; in data set [5], greater than 20 µM; in data set [6] (Severe acute respiratory syndrome coronavirus, read-out: SARS1-S IC50) it was 77.2 ± 4.69 nM; in data set [7], 3.78 nM; in data set [8], 10.4 µM. Besides, the “less potent against SARS1-S than against SARS2-S” value in data set [6] is reported as roughly 8 fold. Besides, the “higher potency as compared to the best ReFRAME hit, SR-806 (VBY-825)” value in data set [1] was 7.1 fold. The “higher specificity as compared to the best ReFRAME hit, SR-806 (VBY-825)” value in data set [1] is reported as “higher than 7.1 fold”. The “therapeutic index (TI=CC50/IC50)” value in data set [1] is on record as “greater than 100”.
Take `CN(C)C(=O)COC(=O)Cc1ccc(OC(=O)c2ccc(NC(=N)N)cc2)cc1` [Camostat mesylate, reference compound]: the “activity against wild type SARS-CoV-2 (CPE)” value in data set [2] is “did not shown any activity”.
